Assay results published in article PMC9430770 (Microbiology Spectrum, 2022).

Tested on: C. albicans
Assay: Treatment in liquid YP medium with different carbon sources, then spotting on solid YPD
Format: cell-based, Candida albicans
Conditions: 128 μg/mL BE, 48 h
Description: FIG 2 Eno1 is a target of BE. (A) Schematic diagram of synthesis label-BE. Label-BE is synthesized by intermediate TPD-10a with benzyl bromide structure and triacetylated BE. (B) The molecular structure of label-BE. Label-BE contains a trifluoromethylphenyl diazo heterocyclic propylene group (marked by a red dotted line) as a photoaffinity group to enhance the binding of label-BE to its target proteins and an alkyne group (marked by a blue dotted line) connected with an azide group (from the TAMRA-N3 or biotin-N3) by a copper-catalyzed azide-alkyne cycloaddition. (C) The molecular structures of TAMRA-N3 and biotin-N3. Both of them contain azide groups (marked by a blue dotted line) connected with an alkyne group of label-BE to highlight the target proteins of label-BE. (D) The competition experiment with BE and label-BE used the TAMRA-N3 as a reporter. C. albicans cell lysates were preincubated with 100 μM BE (lane 2) or not (lane 3). Subsequently, the two groups were incubated with 10 μM label-BE and irradiated with UV light at 365 nm and then treated with TAMRA-N3. After separation of SDS-PAGE, label-BE-targeted proteins were visualized by in-gel fluorescence scanning. The three fluorescent bands in lane 3 (indicated by red triangles) were cut out and pooled and then analyzed by LC-MS/MS. (E) The competition experiment with BE and label-BE used the biotin-N3 as a reporter. In the following enrichment with streptavidin-conjugated beads and separation by SDS-PAGE gel, targets of label-BE were visualized by Coomassie blue staining. The brighter band in lane 3 (indicated by red triangle) was then cut out and analyzed by LC-MS/MS. […] C. albicans cells were first treated with 128 μg/mL BE in liquid YP medium with either 3-PG (32 mg/mL), pyruvate (32 mg/mL), glucose (20 mg/mL), or glycerol (2% [vol/vol]) for 48 h and then were spotted (1:10 dilution) onto solid YPD medium and photographed after 48 h of incubation at 30°C. The red termination line represents inhibition; 3-PG, 3-phosphoglyceric acid. (G) The competition experiment with BE and label-BE used the TAMRA-N3 as a reporter by E. coli cell lysates containing recombinant C. albicans Eno1.
In order to further identify which glycolysis-related protein is the target of BE, we investigated the antifungal activity of BE in the media containing different intermediate products of glycolysis. 3-Phosphoglyceric acid (3-PG) is a downstream intermediate of Pgk1-catalyzed glycolysis but an upstream intermediate of Eno1-catalyzed glycolysis, while pyruvate is a downstream intermediate of Eno1-catalyzed glycolysis (Fig. 2F). […]

## O=c1cc(-c2ccccc2)oc2cc(O)c(O)c(O)c12 [BE, Baicalein]
Liquid YP medium with 3-PG (32 mg/mL)
  antifungal activity: strong antifungal activity
Liquid YP medium with glucose (20 mg/mL)
  antifungal activity: strong antifungal activity
Liquid YP medium with glycerol (2% vol/vol)
  antifungal activity: no antifungal activity
Liquid YP medium with pyruvate (32 mg/mL)
  antifungal activity: no antifungal activity
